Usually IC50 stands for the concentration needed to halve the response being measured. As usually defined, the Kd is the concentration at which binding is half-saturated. Lower therefore signals tighter binding. As a reminder, the TGI is the reduction of tumour growth relative to the control group.

The values that follow come from article PMC12278645, “Design, synthesis, and antitumor activity of novel thioheterocyclic nucleoside derivatives by suppressing the c-MYC pathway” (Acta Pharmaceutica Sinica. B, 2025).

For data set [1], the system named is HCT116 cells. Description: CCK-8 anti-proliferation assay, HCT116. It counts as cell-based, human. To be noted: Homo sapiens, HCT-116, 48 h, CCK-8, 48 h, mean ± SD, three independent experiments. The procedure:
Tumor cell anti-proliferation activities were determined by cell counting kit-8 (CCK-8) assay.
(§1) MCF-7, A375, and HeLa cells were cultured in DMEM, HCT116 cells were cultured in McCoy's 5A medium, and DU145 and CT26 were cultured in RPMI 1640 with 10% FBS, 1% penicillin-streptomycin solution (10,000 U/mL penicillin and 10,000 μg/mL streptomycin) at 37 °C under 5% CO2. The cells were seeded in 96-well plates (4 × 10^3 cells/well) overnight and then treated with various concentrations (1–50 μmol/L) of the compound. After 48 h, the cell viability was measured by CCK-8 assay. The absorbance of each well was measured using a microplate reader (Multiskan FC, Thermo Fisher Scientific, Massachusetts, USA) at 450 nm wavelength. Assays were performed in triplicate. Compound concentrations that inhibited cell growth by 50% (IC50) were calculated from the dose–response curves of each cell line. Data are mean ± SD values from three independent experiments.
(In general: Tetrazolium assays rely on reduction of a dye to a coloured formazan, in cell work by metabolically active cells.)

For data set [2], the system named is MCF-7 (human breast cancer). Kind of data set: CCK-8 anti-proliferation assay, MCF-7. The following applies: Homo sapiens, MCF7; CCK-8, 48 h, mean ± SD. It counts as cell-based. The procedure:
To evaluate their spectrum of anti-proliferative activity, further CCK-8 assays were carried out with the selected compounds (5a/5b, 8a/8b, 33a/33b, and 36a/36b) on MCF-7 (human breast cancer), A375 (human malignant melanoma), DU145 (human prostate cancer), and CT26 (mouse colon cancer) cell lines. The selected compounds had moderate to potent antitumor activity on the four cell lines, indicating their broad spectrum of antitumor activity (Table 5).
as §1

Data set [3] relates to HCT116 cells. Kind of data set: Colony formation. Format: cell-based, human. The following applies: 48 h treatment, then 14 days. The procedure: HCT116 cells were seeded in 6-well plates (1.5 × 10^3 cells/well). Various concentrations of compound 33a or 36b were added to the wells for 48 h. The culture medium was changed every 72 h, at the end of 14 days, cells were fixed with methanol for 30 min and stained with 0.1% crystal violet staining solution for 30 min at room temperature, then washed three times in PBS and allowed to dry. Photographs were then taken.

The subject of data set [4] is HCT116 cells. Kind of data set: EdU assay. It counts as cell-based, human. The following applies: 48 h. The procedure: HCT116 cells were seeded in 96-well plates (4 × 10^4 cells/well) overnight and then the cells were treated with various concentrations of compound 33a or 36b. After 48 h, the experiment operation process was performed according to the manufacturer's instructions. Images were obtained with a Leica DMIL fluorescence microscope (Leica Microsystems, Wetzlar, Germany).

In data set [5] the test system is HCT116 cells. Description: Cell cycle assay (PI, flow cytometry). Format: cell-based, human. To be noted: 48 h. The procedure: Cells were seeded in 6-well plates (5 × 10^5 cells/well). The following day, defined concentrations of compound 33a or 36b were added to the wells for 48 h at 37 °C with 5% CO2. The cells were collected and fixed in ice-cold 70% alcohol overnight. Then the cells were stained in propidium iodide (PI) dye for 15 min in the dark and the cell DNA contents were analyzed via flow cytometry (Becton, Dickinson Company, New Jersey, USA).
(In general: Flow cytometry measures light scatter and fluorescence of single cells or particles in a stream.)

Data set [6] deals with HCT116 cells. Kind of data set: Intracellular ROS measurement (DCFH-DA). It counts as cell-based, human. To be noted: 48 h. The procedure:
HCT116 cells were seeded in 96-well plates overnight and then the cells were treated with defined concentrations of compound 33a or 36b. In addition, cells were pretreated with 0.8 mmol/L NAC for 1 h. After 48 h, the cells were washed with PBS. DCFH-DA (100 μL, 100 μmol/L) was added to each well and incubated for 30 min at 37 °C, and the cells were washed twice with PBS. Finally, the cells were cultivated in a 100 μL culture medium and the fluorescence signals were detected with an EnVision® NexusTM Multi-Mode Microplate Reader or flow cytometry (Becton, Dickinson Company).

For data set [7], the system named is HCT116 cells. Description: RNA-sequencing analysis. Format: cell-based, human. The following applies: 48 h. The procedure:
Total RNA was isolated from the HCT11 cells using Trizol (Invitrogen Life Technologies Corporation, Carlsbad, USA), cDNA synthesis followed by adaptor ligation and enrichment according to the instructions. The purified library products were evaluated using Illumina NovaSeq 6000 (paired-end 150 bp).

For data set [8], the target named is T1, c-MYC (Homo sapiens, UniProt P01106). Kind of data set: Surface plasmon resonance (SPR) assay. Format: binding. The following applies: c-MYC immobilized on CM5 chip, 25 °C. The procedure:
SPR analyses to evaluate the interaction of thioheterocyclic nucleoside derivatives with c-MYC immobilized onto a CM5 sensor chip (Cytiva, BR100012, Sweden) were performed using a Biacore T200 apparatus (Cytiva, Sweden) at 25 °C. During the analyte–ligand interaction, the change of the refractive index was measured in real-time which allowed interaction results to be plotted as response units (RU) versus time.

The test system of data set [9] is CT26 colon cancer xenograft. Kind of data set: CT26 xenograft tumor growth assay. Format: in vivo, BALB/c mice. The procedure: All animal studies and procedures were approved by the Animal Ethics Committee of College of Chemistry and Chemical Engineering, Henan Normal University, China. CT26 cells (ATCC, Rockville, MD, USA) were used for tumor allograft experiments. […] Mice were injected with CT26 cells (1 × 10^7 per mouse) subcutaneously. The diameter of transplanted mouse tumors was measured with vernier calipers. […] The antitumor activity of the tested compounds was evaluated by measuring the tumor diameter. Tumor diameter and body weight were measured every two days. After 15 days, tumor tissues were surgically removed, weighed, and photographed. The tumor volume (TV) was calculated as in Eq. (1):(1) V=1/2×a×b^2 where a and b represent the length and width, respectively. Samples were used for histology. The tumor growth inhibition rate TGI (%) was calculated with Eq. (2):(2) TGI(%)=(1‒Tw/Cw)×100 where Tw and Cw are the average tumor weight on the 15th day for the treatment group and the model group, respectively.

For data set [10], the target named is T1, c-MYC. Kind of data set: Cellular thermal shift assay (CETSA). It counts as binding. More on the design: HCT116 cells were lysed with mammalian protein extraction reagent (M-PER); endogenous in cells; host or cells: HCT116. The following applies: 40-70 °C. The procedure: In short, the lysates were incubated with 33a or 36b or DMSO for 30 min. The […] were divided equally and individually heated at different temperatures (40–70 °C) for 3 min and then cooled on ice. After freeze-thawing twice with liquid nitrogen, the supernatant was centrifuged, collected, and boiled in a loading buffer. c-MYC protein was analyzed by Western blot.

T1 sequence (P01106 whole entry): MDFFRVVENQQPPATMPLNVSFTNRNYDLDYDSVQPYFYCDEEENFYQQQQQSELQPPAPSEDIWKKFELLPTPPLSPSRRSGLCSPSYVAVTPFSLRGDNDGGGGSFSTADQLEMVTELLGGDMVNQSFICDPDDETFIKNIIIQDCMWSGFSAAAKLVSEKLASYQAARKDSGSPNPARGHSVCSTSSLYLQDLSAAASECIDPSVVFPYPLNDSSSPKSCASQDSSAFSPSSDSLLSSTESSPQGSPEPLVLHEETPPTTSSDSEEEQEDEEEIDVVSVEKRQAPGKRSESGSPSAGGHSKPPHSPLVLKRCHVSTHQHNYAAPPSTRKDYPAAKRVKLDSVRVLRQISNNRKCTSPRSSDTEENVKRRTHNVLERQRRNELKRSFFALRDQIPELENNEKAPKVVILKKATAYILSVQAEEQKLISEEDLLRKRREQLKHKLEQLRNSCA

Regarding `CCOC(=O)[C@]1(n2cnc3c(N4CCCCC4)nc(F)nc32)CSC[C@H]1O` (racemic) [33a], the IC50 is 0.27 ± 0.01 µM in the data set on HCT116 cells [1] and 8.45 ± 1.03 µM in data set [2]. The colony formation entry with HCT116 cells [3] is “reduce the colony formation number in a dose-dependent manner”. The EdU-positive cells result with HCT116 cells [4] is reported as “significantly fewer EdU-positive cells than in the control group”. The “G2/M cells” value in the data set on HCT116 cells [5] is “increased the percentage of G2/M cells in a dose-dependent manner”. Besides, the “ROS levels” value with HCT116 cells [6] is given as “significantly increased ROS levels in a dose-dependent manner”. In the data set on HCT116 cells [7] (0.8 μmol/L), this compound showed a genes significantly downregulated of 221. The same compound showed a genes significantly upregulated with HCT116 cells [7] (0.8 μmol/Lol/L) of 265. Also, the Kd on c-MYC [8] turned out to be 42.9 µM. In [9] (20 mg/kg i.p. once a day for 14 days), this compound gave a TGI of 54.74%. The “IHC of tumor tissue” value in data set [9] (55 and 20 mg/kg) is “significantly reduce the expression of tumor proliferation markers Ki67 and PCNA, increase the expression of cleaved caspase-3, and decrease the expression of c-MYC”. Further, the “effect on body weight” value in [9] (55 and 20 mg/kg i.p., 14 days) is listed as “did not show an obvious toxic effect on body weight”. Further, the “tumor growth” value in [9] (55 and 20 mg/kg i.p., 14 days, tumor volume and weight) is recorded as “significant dose-dependent inhibitory effect on tumor growth”. Moreover, the “H&E staining of major organs” value in [9] (heart, liver, spleen, lung, kidney) is given as “the major organs showed no apparent evidence of injury or abnormality”. For the same compound, at c-MYC [10], the “thermal stability of c-MYC” value was “increase the thermal stability of c-MYC in HCT116 cells from 40 to 70 °C”.

With `CCCSc1nc(F)nc2c1ncn2[C@@]1(C(=O)OCC)CSC[C@@H]1O` (relative stereo) [36b], the IC50 was 0.49 ± 0.08 µM in the data set on HCT116 cells [1] and 14.1 ± 1.24 µM in data set [2]. Also, the colony formation result with HCT116 cells [3] is “reduce the colony formation number in a dose-dependent manner”. Also, in the data set on HCT116 cells [4], the EdU-positive cells entry is “significantly fewer EdU-positive cells than in the control group”. In the data set with HCT116 cells [5], the “G2/M cells” value was “increased the percentage of G2/M cells in a dose-dependent manner”. In the data set on HCT116 cells [6], the “ROS levels” value was “significantly increased ROS levels in a dose-dependent manner”. Further, the Kd on c-MYC [8] was found to be 206 µM. The “thermal stability of c-MYC” value at c-MYC [10] was “increase the thermal stability of c-MYC in HCT116 cells from 40 to 70 °C”.
